The text below walks through data of patent publication US11142526B2, “Spirocycle compounds and methods of making and using same” (H. Lundbeck A/S, priority 2017, dated 2021).

In assay [1] the target is T1, MAGL (Mus musculus (Mouse), UniProt O35678). Nature of the assay: Mouse brain proteomes from inhibitor treated mice (oral gavage, brain MAGL activity 4 h after administration). In kind it is in vivo. Particulars: 5 mg/kg oral gavage. The procedure:
Preparation of Mouse Brain Proteomes from Inhibitor Treated Mice.
Inhibitors were administered to wild-type C57B1/6J by oral gavage in a vehicle of polyethylene glycol.

The target of assay [2] is T1, MAGL. The experiment in a line: In vitro competitive activity-based protein profiling, mouse brain proteome. In kind it is biochemical. The conditions noted are these: for inhibition at 1 µM: mouse; for IC50: mouse brain.
Assay [3] deals with MAGL (Homo sapiens (Human), UniProt Q99685). Nature of the assay: In vitro competitive activity-based protein profiling (gel-based, FP-Rh or HT-01 probe). In kind it is biochemical. The conditions noted are these: human PC3; read-out: MAGL Human PC3 (IC50). As to the method:
In Vitro Competitive Activity-Based Protein Profiling.
Proteomes (human prefrontal cortex or cell membrane fractions) (50 μL, 1.0 mg/mL total protein concentration) were preincubated with varying concentrations of inhibitors at 37° C. After 30 min, FP-Rh or HT-01 (1.0 μL, 50 μM in DMSO) was added and the mixture was incubated for another 30 min at room temperature. Reactions were quenched with SDS loading buffer (15 μL—4×) and run on SDS-PAGE.

A value given as a limit tells only on which side of the number the result lay.

T1 sequence (O35678 whole entry): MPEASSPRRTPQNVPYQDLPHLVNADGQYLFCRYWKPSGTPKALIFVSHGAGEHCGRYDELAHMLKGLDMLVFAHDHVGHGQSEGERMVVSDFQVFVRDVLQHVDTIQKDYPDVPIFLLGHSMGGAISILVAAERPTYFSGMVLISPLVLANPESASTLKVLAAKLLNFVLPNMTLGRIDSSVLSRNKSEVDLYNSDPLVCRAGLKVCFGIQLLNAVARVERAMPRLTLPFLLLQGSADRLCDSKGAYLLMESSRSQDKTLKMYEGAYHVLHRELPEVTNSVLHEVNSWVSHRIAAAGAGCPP
MAGL (Homo sapiens (Human), UniProt Q99685), sequence (Q99685 whole entry): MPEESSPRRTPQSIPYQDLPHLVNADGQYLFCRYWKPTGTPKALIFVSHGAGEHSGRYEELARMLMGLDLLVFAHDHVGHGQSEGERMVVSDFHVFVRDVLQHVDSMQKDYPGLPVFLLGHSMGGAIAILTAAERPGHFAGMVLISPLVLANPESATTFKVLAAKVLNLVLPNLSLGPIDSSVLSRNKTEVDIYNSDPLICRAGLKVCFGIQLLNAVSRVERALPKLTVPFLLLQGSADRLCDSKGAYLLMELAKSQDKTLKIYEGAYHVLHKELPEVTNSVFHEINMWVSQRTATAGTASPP

On to `O=C(OC(C(F)(F)F)C(F)(F)F)N1CCC2(CCCN2Cc2cnc(N3CCCC3)s2)CC1` [Example 226, 1,1,1,3,3,3-Hexafluoropropan-2-yl 1-((2-(pyrrolidin-1-yl)thiazol-5-yl)methyl)-1,8-diazaspiro[4.5]decane-8-carboxylate], for which, at MAGL [1], the “MAGL % Inhibition at 5 mg/kg (Mouse)” value was “### (% inhibition is greater than or equal to 75%)”. In addition, at MAGL [2], the inhibition at 1 µM was greater than 75% and the IC50 is less than 100 nM. At MAGL [3], the IC50 is less than 100 nM.
For the molecule `O=C(OC(C(F)(F)F)C(F)(F)F)N1CCC2(CCCN2Cc2cnc3ccccn23)CC1` [Example 228, 1,1,1,3,3,3-Hexafluoropropan-2-yl 1-(imidazo [1,2-a]pyridin-3-ylmethyl)-1,8-diazaspiro[4.5]decane-8-carboxylate], on MAGL [1], the “MAGL % Inhibition at 5 mg/kg (Mouse)” value was “### (% inhibition is greater than or equal to 75%)”. At MAGL [2], this molecule showed an inhibition at 1 µM greater than 75% and an IC50 of less than 100 nM. Also, the IC50 on MAGL [3] was less than 100 nM.
Regarding `O=C(OC(C(F)(F)F)C(F)(F)F)N1CCC2(CCCN2Cc2cnc3ccc(Cl)cn23)CC1` [Example 229, 1,1,1,3,3,3-Hexafluoropropan-2-yl 1-((6-chloroimidazo[1,2-a]pyridin-3-yl)methyl)-1,8-diazaspiro[4.5]decane-8-carboxylate], on MAGL [1], the “MAGL % Inhibition at 5 mg/kg (Mouse)” value is “### (% inhibition is greater than or equal to 75%)”. The molecule further registered an inhibition at 1 µM on MAGL [2] greater than 75%. For the same molecule, the IC50 at MAGL [2] and on MAGL [3] was less than 100 nM each time.
